Experimental data from patent EP2505659A1, “Methods for the identification of dioxygenase interacting molecules and for the purification of dioxygenase proteins” (CELLZOME AG, priority 2011, dated 2012).
Counter-ions that a name gives are not always drawn. Like-named read-outs stand apart in the source and are kept apart here.

Assays:
Experiment in all cases: Bead competition binding assay, immobilized compound A, K-562, HL-60 and Jurkat nuclear lysates
Conditions in all cases: 100 µM free compound A, read-out: Fold change versus DMSO control
ALKBH7 = biological target: T1, ALKBH7 (Homo sapiens, UniProt Q9BT30)
T1 construct: capturing and identification of dioxygenases from nuclear lysates of three different cell lines; endogenous in cells; host or cells: K-562, HL-60 and Jurkat nuclear lysates
T1 sequence (Q9BT30 21-221): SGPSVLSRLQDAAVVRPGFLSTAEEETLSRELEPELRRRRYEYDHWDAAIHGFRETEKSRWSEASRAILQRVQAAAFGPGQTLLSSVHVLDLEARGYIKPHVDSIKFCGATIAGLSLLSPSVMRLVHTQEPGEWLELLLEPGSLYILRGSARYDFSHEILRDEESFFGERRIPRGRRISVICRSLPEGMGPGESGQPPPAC
Text: (§1) K562 cells were also purchased from DSMZ (Braunschweig, Germany).
(§2) Table 5: Peptide elution off the LC system
(§3) Seventeen different dioxygenases were identified.

EGLN2 = biological target: T2, EGLN2 (Homo sapiens, UniProt Q96KS0)
T2 construct: capturing and identification of dioxygenases from nuclear lysates of three different cell lines; endogenous in cells; host or cells: K-562, HL-60 and Jurkat nuclear lysates
Text: as §1, §2, §3

LEPRE1 = biological target: T3, LEPRE1 (Homo sapiens, UniProt Q32P28)
T3 construct: capturing and identification of dioxygenases from nuclear protein extracts; endogenous in cells
T3 sequence (Q32P28 23-736): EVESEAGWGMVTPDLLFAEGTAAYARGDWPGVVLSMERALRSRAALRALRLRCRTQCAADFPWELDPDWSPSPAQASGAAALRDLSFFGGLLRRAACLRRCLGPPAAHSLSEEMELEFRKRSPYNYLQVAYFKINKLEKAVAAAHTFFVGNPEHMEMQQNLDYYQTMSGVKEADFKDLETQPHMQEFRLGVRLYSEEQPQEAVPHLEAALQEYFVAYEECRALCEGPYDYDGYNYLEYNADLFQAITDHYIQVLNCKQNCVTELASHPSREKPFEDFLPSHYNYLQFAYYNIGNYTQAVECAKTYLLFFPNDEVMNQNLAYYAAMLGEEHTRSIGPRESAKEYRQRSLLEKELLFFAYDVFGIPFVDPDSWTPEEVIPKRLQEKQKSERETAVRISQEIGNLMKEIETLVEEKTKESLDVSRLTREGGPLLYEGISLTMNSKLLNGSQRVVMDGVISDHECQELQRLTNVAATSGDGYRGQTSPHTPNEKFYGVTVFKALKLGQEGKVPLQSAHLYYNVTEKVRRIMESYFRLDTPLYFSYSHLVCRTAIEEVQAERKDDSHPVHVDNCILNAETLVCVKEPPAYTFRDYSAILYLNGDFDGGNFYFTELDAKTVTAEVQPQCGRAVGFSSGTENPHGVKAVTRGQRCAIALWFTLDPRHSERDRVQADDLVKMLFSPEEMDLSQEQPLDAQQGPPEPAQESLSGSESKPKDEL
Text: as §1, §2, §3

OGFOD1 = biological target: T4, OGFOD1 (Homo sapiens, UniProt Q8N543)
T4 construct: capturing and identification of dioxygenases from nuclear protein extracts; endogenous in cells
Text: as §1, §2, §3

P4HA2 = biological target: T5, P4HA2 (Homo sapiens, UniProt O15460)
T5 construct: capturing and identification of dioxygenases from nuclear lysates of three different cell lines; endogenous in cells; host or cells: K-562, HL-60 and Jurkat nuclear lysates
Text: as §1, §2, §3

PLOD2 = biological target: T6, PLOD2 (Homo sapiens, UniProt O00469)
T6 construct: capturing and identification of dioxygenases from nuclear lysates of three different cell lines; endogenous in cells; host or cells: K-562, HL-60 and Jurkat nuclear lysates
T6 sequence (O00469 26-737): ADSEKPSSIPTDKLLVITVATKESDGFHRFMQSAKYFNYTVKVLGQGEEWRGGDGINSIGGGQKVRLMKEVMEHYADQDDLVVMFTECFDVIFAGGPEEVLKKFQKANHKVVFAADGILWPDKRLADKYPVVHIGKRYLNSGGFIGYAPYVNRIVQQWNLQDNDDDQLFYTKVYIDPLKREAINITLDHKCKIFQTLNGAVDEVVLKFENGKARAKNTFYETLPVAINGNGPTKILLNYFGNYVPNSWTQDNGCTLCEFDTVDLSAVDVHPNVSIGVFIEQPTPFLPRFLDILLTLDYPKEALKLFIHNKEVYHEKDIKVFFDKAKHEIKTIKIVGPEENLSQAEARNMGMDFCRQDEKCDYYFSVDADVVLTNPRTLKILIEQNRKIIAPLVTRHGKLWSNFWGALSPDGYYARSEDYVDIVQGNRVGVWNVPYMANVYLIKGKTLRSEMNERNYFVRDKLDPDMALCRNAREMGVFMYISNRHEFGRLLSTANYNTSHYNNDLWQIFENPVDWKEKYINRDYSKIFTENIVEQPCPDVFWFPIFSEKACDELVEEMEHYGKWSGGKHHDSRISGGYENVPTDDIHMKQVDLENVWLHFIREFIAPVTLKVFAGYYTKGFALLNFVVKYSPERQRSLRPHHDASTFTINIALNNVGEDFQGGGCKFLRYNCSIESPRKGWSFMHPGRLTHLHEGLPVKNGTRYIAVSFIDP
Text: as §1, §2, §3

TMLHE = biological target: T7, TMLHE (Homo sapiens, UniProt Q9NVH6)
T7 construct: capturing and identification of dioxygenases from nuclear lysates of three different cell lines; endogenous in cells; host or cells: K-562, HL-60 and Jurkat nuclear lysates
T7 sequence (Q9NVH6 16-421): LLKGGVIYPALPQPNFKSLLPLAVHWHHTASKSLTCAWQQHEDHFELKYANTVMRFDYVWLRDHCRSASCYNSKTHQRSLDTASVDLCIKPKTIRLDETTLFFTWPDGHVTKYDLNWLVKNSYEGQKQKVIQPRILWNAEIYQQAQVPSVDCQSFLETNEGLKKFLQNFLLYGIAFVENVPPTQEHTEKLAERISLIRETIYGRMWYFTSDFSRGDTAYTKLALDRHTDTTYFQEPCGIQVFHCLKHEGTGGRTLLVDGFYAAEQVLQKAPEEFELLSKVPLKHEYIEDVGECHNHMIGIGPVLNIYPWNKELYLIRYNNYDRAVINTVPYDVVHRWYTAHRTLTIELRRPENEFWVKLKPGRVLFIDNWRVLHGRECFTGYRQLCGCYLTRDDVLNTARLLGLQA
Text: as §1, §2, §3

T2 sequence (Q96KS0 whole entry): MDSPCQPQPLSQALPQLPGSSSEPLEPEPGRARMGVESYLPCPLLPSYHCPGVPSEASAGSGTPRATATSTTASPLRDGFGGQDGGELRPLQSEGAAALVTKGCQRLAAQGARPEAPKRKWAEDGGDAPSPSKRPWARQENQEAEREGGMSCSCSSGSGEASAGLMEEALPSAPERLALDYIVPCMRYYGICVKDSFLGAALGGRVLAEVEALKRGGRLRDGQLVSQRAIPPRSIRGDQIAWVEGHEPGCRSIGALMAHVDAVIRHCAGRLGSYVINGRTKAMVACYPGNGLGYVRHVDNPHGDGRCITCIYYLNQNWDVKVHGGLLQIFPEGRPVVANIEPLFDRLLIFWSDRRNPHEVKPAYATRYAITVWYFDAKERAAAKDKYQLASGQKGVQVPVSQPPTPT
T5 sequence (O15460 22-535): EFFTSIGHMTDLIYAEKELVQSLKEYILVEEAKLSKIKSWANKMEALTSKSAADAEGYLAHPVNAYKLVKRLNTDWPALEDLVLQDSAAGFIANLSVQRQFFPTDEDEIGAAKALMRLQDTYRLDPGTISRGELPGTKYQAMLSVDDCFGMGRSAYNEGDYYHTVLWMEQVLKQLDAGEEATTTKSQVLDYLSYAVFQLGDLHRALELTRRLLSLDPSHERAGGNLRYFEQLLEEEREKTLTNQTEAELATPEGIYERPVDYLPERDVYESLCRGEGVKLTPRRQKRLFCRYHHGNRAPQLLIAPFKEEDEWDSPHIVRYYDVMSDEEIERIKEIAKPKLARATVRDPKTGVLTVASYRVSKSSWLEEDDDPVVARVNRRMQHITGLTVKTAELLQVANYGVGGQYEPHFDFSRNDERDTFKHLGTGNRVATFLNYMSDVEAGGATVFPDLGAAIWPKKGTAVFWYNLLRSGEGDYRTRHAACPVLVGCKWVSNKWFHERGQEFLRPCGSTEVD
T5 sequence (P07237 18-508 partner): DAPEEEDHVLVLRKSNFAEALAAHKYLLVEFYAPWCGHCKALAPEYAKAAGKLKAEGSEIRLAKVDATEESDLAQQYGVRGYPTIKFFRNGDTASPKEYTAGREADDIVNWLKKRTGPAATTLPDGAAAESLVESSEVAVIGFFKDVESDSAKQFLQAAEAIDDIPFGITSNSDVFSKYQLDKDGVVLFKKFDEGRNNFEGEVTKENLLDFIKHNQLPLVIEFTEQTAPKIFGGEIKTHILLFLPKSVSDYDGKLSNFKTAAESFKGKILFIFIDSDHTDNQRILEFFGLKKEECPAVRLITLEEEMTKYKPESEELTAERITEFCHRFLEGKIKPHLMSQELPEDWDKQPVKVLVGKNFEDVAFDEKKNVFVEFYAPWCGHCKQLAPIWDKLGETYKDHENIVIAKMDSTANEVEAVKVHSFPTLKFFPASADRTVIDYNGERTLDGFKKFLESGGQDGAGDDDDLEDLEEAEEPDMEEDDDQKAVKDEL
T4 sequence (Q8N543 whole entry): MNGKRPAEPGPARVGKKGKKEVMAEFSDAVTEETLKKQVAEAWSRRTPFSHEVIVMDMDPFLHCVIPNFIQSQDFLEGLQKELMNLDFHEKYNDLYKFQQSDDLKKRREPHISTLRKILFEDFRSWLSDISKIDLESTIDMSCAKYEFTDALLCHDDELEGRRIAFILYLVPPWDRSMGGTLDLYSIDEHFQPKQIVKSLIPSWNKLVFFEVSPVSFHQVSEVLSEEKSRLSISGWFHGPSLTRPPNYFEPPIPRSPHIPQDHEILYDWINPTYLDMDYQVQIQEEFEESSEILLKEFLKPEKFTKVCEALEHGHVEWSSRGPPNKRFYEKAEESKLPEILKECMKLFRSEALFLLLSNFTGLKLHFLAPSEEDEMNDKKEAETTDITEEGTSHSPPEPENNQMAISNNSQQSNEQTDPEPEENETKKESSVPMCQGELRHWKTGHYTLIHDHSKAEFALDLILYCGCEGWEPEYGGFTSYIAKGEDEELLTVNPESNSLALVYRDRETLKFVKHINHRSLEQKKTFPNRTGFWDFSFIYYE

For `O=C(O)CNC(=O)C1C(=O)OC2(CCNCC2)OC1=O` [compound A, 2-(2,4-dioxo-1,5-dioxa-9-azaspiro[5.5]undecane-3-carboxamido)acetic acid hydrochloride], the remaining binding at 100 µM (ALKBH7; HL-60 nuclear lysate) was 82%, the remaining binding at 100 µM (ALKBH7; Jurkat nuclear lysate) was 55% and the remaining binding at 100 µM (ALKBH7; K-562 nuclear lysate) was 54%. For the same compound, the remaining binding at 100 µM (EGLN2; HL-60 nuclear lysate) was 124%, the remaining binding at 100 µM (EGLN2; Jurkat nuclear lysate) was 123% and the remaining binding at 100 µM (EGLN2; K-562 nuclear lysate) was 75%. The remaining binding at 100 µM (LEPRE1; HL-60 nuclear lysate) was 126%, the remaining binding at 100 µM (LEPRE1; Jurkat nuclear lysate) was 90% and the remaining binding at 100 µM (LEPRE1; K-562 nuclear lysate) was 100%. It also gave a remaining binding at 100 µM (OGFOD1; HL-60 nuclear lysate) of 50%, a remaining binding at 100 µM (OGFOD1; Jurkat nuclear lysate) of 30% and a remaining binding at 100 µM (OGFOD1; K-562 nuclear lysate) of 19%. The remaining binding at 100 µM (P4HA2; HL-60 nuclear lysate) was 279%, the remaining binding at 100 µM (P4HA2; Jurkat nuclear lysate) was 136% and the remaining binding at 100 µM (P4HA2; K-562 nuclear lysate) was 28%. The remaining binding at 100 µM (PLOD2; HL-60 nuclear lysate) was 86%, the remaining binding at 100 µM (PLOD2; Jurkat nuclear lysate) was 109% and the remaining binding at 100 µM (PLOD2; K-562 nuclear lysate) was 54%. It also gave a remaining binding at 100 µM (TMLHE; HL-60 nuclear lysate) of 104%, a remaining binding at 100 µM (TMLHE; Jurkat nuclear lysate) of 49% and a remaining binding at 100 µM (TMLHE; K-562 nuclear lysate) of 50%.
